US20090232757A1, “Use of gamma-amino butyric acid as a depigmenting agent” (priority 2006, published 2009)
Values joined by “and” are separate entries in the source; they are usually repeats but may differ in a detail not shown here. Equal values may be shown once. Read-outs that look alike come from different tables or passages of the source. Marks after values point to notes of the source that are not given here.

What was measured:
normal human melanocytes [1] = details: for Dose from which a cytotoxic effect is detected (less than 80% of the viable cells still present) / Percentage of viability (vs controls), Mean: human, 72 h
Protocol: The determination is performed with normal human melanocytes obtained from a young patient. For the performance of the tests, the cells have been cultured until obtention of confluent mono-layers.
As a comparison one has prepared a 10% solution of kojic acid and a 30% solution of lactic acid (composition E).
The tested preparations have been then directly diluted in the incubation medium for the melanocytes.
At the end of the incubation period, the viability of the cells has been evaluated using a spectrophotometric method for dosing the activity of the intracellular phosphatases. According to the method of Yan T. et al. (Anal. Biochem. 24 (1996) 103-108), one doses the p-nitrophenol resulting from the conversion of the phosphate of p-nitrophenol by means of the intracellular phophatases of the viable cells present in the wall of culture.

normal human melanocytes [2] = assay: Melanomodulating effect: intracellular melanine/proteins ratio in normal human melanocytes in monolayer culture (72 h); type: cell-based
Excerpt: The search of a “melanomodulating” effect has been performed in two steps: • melanomodulating effect of the active ingredients taken separately at predetermined concentrations in the cytotoxicity tests. • Melanomodulating effect of the complex, i.e. GABA in admixture with the other ingredients, white mulberry, lemon and lactic acid.
These tests have been performed on a model of normal human melanocytes cultured on monolayer cultures.
Gamma aminobutyric acid, lemon extract and white mulberry extract have been solubilized and directly diluted in the culture medium.
In this method the ratio melanine/proteins is determined as a percentage of the controls.
The effect of a complex containing the active ingredients A (gamma aminobutyric acid), C, D and lactic acid (composition E) has also been evaluated as a comparating element, on the synthesis of melanine in a model of normal human melanocytes cultured in a monolayer culture.
The tested compositions have therafter been directly diluted in the incubation medium for the melanocytes at a concentration of 0.1, 0.5 and 1% (v/v).
Normal human melanocytes have been utilized stemming from a young patient. They have been cultured in a monolayer culture until of a confluence of 80%.
1—Dosage of Melanine: • at the end of the incubation period, the intra cellular content of melanine has been quantified after cellular lysis, using a spectrophotometric measure at 405 nm.
2—Dosage of the Proteins: • at the end of incubation period the proteins contained in the cellular lysates have been determined using a spectrocolometric method based on Coomassie Blue according to the method of Bradford M. (Anal. Biochem. 72 (1976) 248-254).

tyrosinase = molecular target: T1, tyrosinase (Homo sapiens, UniProt P14679); assay: Inhibiting activity on tyrosinase in cultures of normal human melanocytes; type: cell-based
T1 construct: cultures of normal human melanocytes; endogenous in cells; host or cells: normal human melanocytes
Excerpt: Gamma aminobutyric acid as well as its salts and derivatives used in such compositions has been studied on isolated cells and namely on cultures of normal human melanocytes. […] The obtained results are a function of the doses what is in favour of a specific effect of gamma-aminobutyric acid on this kind of parameters.

T1 sequence (P14679 19-529): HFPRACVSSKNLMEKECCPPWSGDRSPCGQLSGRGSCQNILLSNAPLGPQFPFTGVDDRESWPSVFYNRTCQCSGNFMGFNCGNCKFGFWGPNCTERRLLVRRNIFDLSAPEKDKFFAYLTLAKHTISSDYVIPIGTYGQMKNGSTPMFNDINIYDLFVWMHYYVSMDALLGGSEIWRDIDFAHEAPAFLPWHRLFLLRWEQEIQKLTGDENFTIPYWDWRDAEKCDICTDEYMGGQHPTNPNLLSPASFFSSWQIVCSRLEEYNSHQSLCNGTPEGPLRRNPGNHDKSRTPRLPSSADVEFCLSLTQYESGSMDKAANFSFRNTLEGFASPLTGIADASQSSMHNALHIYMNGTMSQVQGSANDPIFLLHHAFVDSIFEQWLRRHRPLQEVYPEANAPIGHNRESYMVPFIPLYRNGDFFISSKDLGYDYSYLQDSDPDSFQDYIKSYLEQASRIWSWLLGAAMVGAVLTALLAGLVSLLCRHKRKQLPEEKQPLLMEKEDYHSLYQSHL

CC(O)C(=O)O (stereo not shown) [E, lactic acid]
Cytotoxicity, result in words (normal human melanocytes [1]): clearly cytotoxic | Dose from which a cytotoxic effect is detected (less than 80% of the viable cells still present) (normal human melanocytes [1]): 0.03% | Percentage of viability (vs controls), Mean (normal human melanocytes [1]; 0.003 % (v/v)): 80.8% | Percentage of viability (vs controls), Mean (normal human melanocytes [1]; 0.03 % (v/v)): 73.2% | Percentage of viability (vs controls), Mean (normal human melanocytes [1]; 0.075 % (v/v)): 70.8% | Percentage of viability (vs controls), Mean (normal human melanocytes [1]; 0.15 % (v/v)): 65.9% | Percentage of viability (vs controls), Mean (normal human melanocytes [1]; 0.3 % (v/v)): 6.2% | Percentage of viability (vs controls), Mean (normal human melanocytes [1]; 0.75 % (v/v)): 2.4% | Percentage of viability (vs controls), Mean (normal human melanocytes [1]; 1.5 % (v/v)): 0.2% | Percentage of viability (vs controls), Mean (normal human melanocytes [1]; 3 % (v/v)): 0.8%

O=c1cc(CO)occ1O [Kojic Acid, Kojic acid]
Ratio melanine/Proteins (% of the controls), Mean (normal human melanocytes [2]; Step 1, Kojic Acid 250 μM in DMSO, 72 h, mean): 77.40* % of the controls | % of the controls (mean ratio melanine/proteins, controls = 100) (normal human melanocytes [2]; Step 2, Kojic Acid 250 μM, 72 h): 84.5 % of the controls | Ratio melanine/Proteins (% of the controls), Mean (normal human melanocytes [2]; Step 2, Kojic Acid 250 μM, 72 h, mean (controls mean 119.2)): 100.8* % of the controls | Ratio melanine/Proteins (% of the controls) (normal human melanocytes [2]; Step 2, Kojic Acid 250 μM, 72 h, single values): 106.3 % of the controls and 93.2 % of the controls and 102.8 % of the controls and 94.1 % of the controls and 97.9 % of the controls | Decrease of the intra cellular content of melanine in the culture cells (normal human melanocytes [2]; Step 2, Kojic acid at 250 μM, 72 h, p<0.05): 15.5%

NCCCC(=O)O [A, gamma aminobutyric acid]
Dose from which a cytotoxic effect is detected (less than 80% of the viable cells still present) (normal human melanocytes [1]): 0.5% | Concentration from which results on ratio melanine/proteins are statistically significant (normal human melanocytes [2]; Step 1, 72 h): 0.1% | Ratio Melanine Proteins (% of the controls), Mean (normal human melanocytes [2]; Step 1, A 0.001% (w/v), 72 h, mean): 101.9 % of the controls | Ratio Melanine Proteins (% of the controls) (normal human melanocytes [2]; Step 1, A 0.001% (w/v), 72 h, single values): 98.8 % of the controls and 108.6 % of the controls and 98.3 % of the controls | Ratio Melanine Proteins (% of the controls), Mean (normal human melanocytes [2]; Step 1, A 0.01% (w/v), 72 h, mean): 96.6 % of the controls | Ratio Melanine Proteins (% of the controls) (normal human melanocytes [2]; Step 1, A 0.01% (w/v), 72 h, single values): 87.0 % of the controls and 101.8 % of the controls and 101.1 % of the controls | Ratio Melanine Proteins (% of the controls), Mean (normal human melanocytes [2]; Step 1, A 0.1% (w/v), 72 h, mean): 74.0* % of the controls | Ratio Melanine Proteins (% of the controls) (normal human melanocytes [2]; Step 1, A 0.1% (w/v), 72 h, single values): 74.3 % of the controls and 76.4 % of the controls and 74.2 % of the controls and 71.3 % of the controls | Intra cellular content of melanine in the cultured cells, result in words (normal human melanocytes [2]; cultured normal human melanocytes): clear decrease | Inhibiting activity on tyrosinase, result in words (tyrosinase): inhibiting activity on tyrosinase
